The values that follow are results of earlier work, collected in patent publication US20050271754A1, “Composition for prevention or treatment of an alcohol hangover” (priority 2004, published 2005).

For this data set, the system named is acetaldehyde levels in the blood, liver and brain. The settings on record: increases the oxidation cycle of ethanol.

For `N[C@@H](CS)C(=O)O` [L-cysteine], the “acetaldehyde levels in the blood, liver and brain” value was “lowering acetaldehyde levels”.
